target: T1, CDK12 wt/CycK (Homo sapiens, UniProt Q9NYV4); assay: Radiometric protein kinase assay (33PanQinase), assay condition 2, thiol containing conditions; type: biochemical; details: thiol containing conditions (1.2 mM DTT), ATP 0.3 μM
T1 construct: either as full-length or enzymatically active fragments
Description: Example 1—Assay condition 2 (thiol containing conditions)
Objective: The IC50 profile of test compounds was determined using protein kinases. IC50 values were measured by testing 10 concentrations (1×10^−04M, 3×10^−05M, 1×10^−05M, 3×10^−06M, 1×10^−06M, 3×10^−07M, 1×10^−07M, 3×10^−08M, 1×10^−08M, and 3×10^−09M) of each compound in singlicate.
Test compounds: The compounds were provided as pre-weighed powders in vials. The compounds were dissolved to 1×10^−02M by adding DMSO. 100 μl of each of the resulting stock solutions were transferred into column 2 of four 96 well “master plates”
Prior to testing, the 1×10^−02M stock solutions in column 2 of the master plates were subjected to a serial, semi-logarithmic dilution using 100% DMSO as a solvent. […] Column 1 and 7 were filled with 100% DMSO as controls. Subsequently, 2×10 μl from each well of the serial diluted copy plates were aliquoted with a 96 channel pipettor into two identical sets of “compound dilution plates”.
In the process, 90 μl H2O were added to each well of a set of compound dilution plates. To minimize potential precipitation, the H2O was added to each plate only a few minutes before the transfer of the compound solutions into the assay plates. Each plate was shaken thoroughly, resulting in a “compound dilution plate/ 10% DMSO”.
For the assays, 5 μl solution from each well of the compound dilution plates/10% DMSO were transferred into the assay plates. The final volume of the assay was 50 μl. All compounds were tested at 10 final assay concentrations in the range from 1×10^−04M to 3×10^−09M, in singlicate. The final DMSO concentration in the reaction cocktails was 1% in all cases.
Recombinant protein kinases: All protein kinases were expressed in Sf9 insect cells or in E.coli as recombinant GST-fusion proteins or His-tagged proteins, either as full-length or enzymatically active fragments. All kinases were produced from human cDNAs and purified by either GSH-affinity chromatography or immobilized metal. Affinity tags were removed from a number of kinases during purification. The purity of the protein kinases was examined by SDS-PAGE/Coomassie staining, the identity was checked by mass spectroscopy.
Protein kinase assay: A radiometric protein kinase assay (^33PanQinase® Activity Assay) was used for measuring the kinase activity. All kinase assays were performed in 96-well FlashPlates™ from PerkinElmer (Boston, MA, USA) in a 50 μl reaction volume. The reaction cocktail was pipetted in four steps in the following order: • 20 μl of assay buffer (standard buffer) • 5μl of ATP solution (in H2O) • 5μl of test compound (in 10% DMSO) • 20 μl enzyme/substrate mix
The assay for all protein kinases contained 70 mM HEPES-NaOH pH 7.5, 3 mM MgCl2, 3 mM MnCl2, 3 μM Na-orthovanadate, 1.2 mM DTT, 50 μg/ml PEG20000, ATP (variable concentrations, corresponding to the apparent ATP-K. of the respective kinase), [γ-^33P]-ATP (approx. 9×10^05cpm per well), protein kinase, and substrate.
The following amounts of enzyme and substrate were used per well:
The reaction cocktails were incubated at 30° C. for 60 minutes. The reaction was stopped with 50 μl of 2% (v/v) H3PO4, plates were aspirated and washed two times with 200 μl 0.9% (w/v) NaCl. Incorporation of ^33Pi was determined with a microplate scintillation counter (Microbeta, Wallac). All assays were performed with a BeckmanCoulter/SAGIANTM Core System.
Evaluation of raw data: The median value of the counts in column 1 (n=8) of each assay plate was defined as “low control”. This value reflects unspecific binding of radioactivity to the plate in the absence of a protein kinase but in the presence of the substrate. The median value of the counts in column 7 of each assay plate (n=8) was taken as the “high control”, i.e. full activity in the absence of any inhibitor. The difference between high and low control was taken as 100% activity. […]

T1 sequence (Q9NYV4 whole entry, the tested form may be a part): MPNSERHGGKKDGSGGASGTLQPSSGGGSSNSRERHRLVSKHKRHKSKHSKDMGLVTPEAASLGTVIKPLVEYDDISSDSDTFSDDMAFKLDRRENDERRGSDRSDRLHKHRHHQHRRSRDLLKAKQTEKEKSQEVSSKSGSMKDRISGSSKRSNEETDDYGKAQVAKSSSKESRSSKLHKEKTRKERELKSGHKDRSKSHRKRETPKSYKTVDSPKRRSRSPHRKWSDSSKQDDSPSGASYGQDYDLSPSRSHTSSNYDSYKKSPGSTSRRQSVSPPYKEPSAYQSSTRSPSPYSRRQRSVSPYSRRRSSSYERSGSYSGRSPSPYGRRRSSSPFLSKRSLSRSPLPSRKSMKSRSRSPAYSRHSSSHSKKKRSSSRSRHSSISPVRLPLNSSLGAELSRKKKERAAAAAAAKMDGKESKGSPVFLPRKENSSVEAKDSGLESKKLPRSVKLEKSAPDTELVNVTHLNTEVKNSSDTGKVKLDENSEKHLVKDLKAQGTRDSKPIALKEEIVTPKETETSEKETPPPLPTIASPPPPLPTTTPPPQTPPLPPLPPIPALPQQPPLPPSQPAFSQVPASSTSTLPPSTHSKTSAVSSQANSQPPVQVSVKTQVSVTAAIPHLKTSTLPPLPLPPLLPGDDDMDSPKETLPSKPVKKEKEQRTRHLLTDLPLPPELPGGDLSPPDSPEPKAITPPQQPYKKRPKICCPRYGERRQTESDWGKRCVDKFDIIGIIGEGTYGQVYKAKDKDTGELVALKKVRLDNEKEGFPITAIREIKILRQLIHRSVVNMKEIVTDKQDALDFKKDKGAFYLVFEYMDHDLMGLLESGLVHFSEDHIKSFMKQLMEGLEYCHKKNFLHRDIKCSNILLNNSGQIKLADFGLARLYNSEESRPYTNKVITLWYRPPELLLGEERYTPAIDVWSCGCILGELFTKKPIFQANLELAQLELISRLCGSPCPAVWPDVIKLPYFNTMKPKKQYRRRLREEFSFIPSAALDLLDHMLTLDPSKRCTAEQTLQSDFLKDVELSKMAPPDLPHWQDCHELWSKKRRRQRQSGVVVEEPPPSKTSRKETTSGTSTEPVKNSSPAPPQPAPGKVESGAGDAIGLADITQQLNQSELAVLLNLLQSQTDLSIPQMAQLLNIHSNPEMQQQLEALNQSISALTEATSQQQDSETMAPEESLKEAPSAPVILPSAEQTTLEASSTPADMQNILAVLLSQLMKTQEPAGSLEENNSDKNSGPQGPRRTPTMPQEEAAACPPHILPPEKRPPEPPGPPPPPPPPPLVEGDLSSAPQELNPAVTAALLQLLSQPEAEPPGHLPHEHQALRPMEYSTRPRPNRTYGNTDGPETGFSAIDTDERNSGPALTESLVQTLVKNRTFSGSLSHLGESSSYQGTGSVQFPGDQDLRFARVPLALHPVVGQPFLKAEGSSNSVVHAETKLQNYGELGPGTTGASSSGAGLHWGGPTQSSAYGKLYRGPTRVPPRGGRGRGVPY
T1 sequence (O75909 whole entry partner, the tested form may be a part): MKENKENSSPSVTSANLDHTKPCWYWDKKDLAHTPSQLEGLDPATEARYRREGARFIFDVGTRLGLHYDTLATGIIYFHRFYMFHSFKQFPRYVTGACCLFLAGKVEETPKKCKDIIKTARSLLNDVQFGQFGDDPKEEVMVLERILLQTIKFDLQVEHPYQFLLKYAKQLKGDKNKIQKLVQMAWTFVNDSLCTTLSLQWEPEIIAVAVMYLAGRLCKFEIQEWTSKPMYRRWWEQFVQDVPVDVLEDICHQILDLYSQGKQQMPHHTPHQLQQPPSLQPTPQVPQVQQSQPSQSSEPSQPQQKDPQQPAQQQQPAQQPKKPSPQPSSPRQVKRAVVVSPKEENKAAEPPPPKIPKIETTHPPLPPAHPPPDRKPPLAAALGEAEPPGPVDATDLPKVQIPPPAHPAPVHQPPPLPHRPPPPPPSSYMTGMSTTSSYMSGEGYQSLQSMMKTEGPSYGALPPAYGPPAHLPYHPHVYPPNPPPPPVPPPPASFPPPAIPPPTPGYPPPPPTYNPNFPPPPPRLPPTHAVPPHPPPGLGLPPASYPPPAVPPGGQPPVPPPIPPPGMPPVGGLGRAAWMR

Structure (SMILES)	IC50
C=CC(=O)Nc1ccc2c(N3CC[C@@H](Nc4ncc(C#N)cn4)C3)nc(N3CCOCC3)cc2c1 [Example 37, (R)—N-(1-(3-((5-cyanopyrimidin-2-yl)amino)pyrrolidin-1-yl)-3-morpholinoisoquinolin-6-yl)acrylamide]	≤ 100 nM
C=CC(=O)N(C)c1ccc2c(N3CC[C@@H](Nc4ncc(C#N)cn4)C3)nc(C)nc2c1 [Example 39, (R)—N-(4-(3-((5-cyanopyrimidin-2-yl)amino)pyrrolidin-1-yl)-2-methylquinazolin-7-yl)-N-methylacrylamide]	≤ 100 nM
C=CC(=O)N(C)c1ccc2c(N3CC[C@@H](Nc4ncc(Br)cn4)C3)nc(C)nc2c1 [Example 40, (R)—N-(4-(3-((5-bromopyrimidin-2-yl)amino)pyrrolidin-1-yl)-2-methylquinazolin-7-yl)-N-methylacrylamide]	≤ 100 nM
C=CC(=O)N(C)c1ccc2c(N3CC[C@@H](Nc4ncc(C#N)cn4)C3)nc(N3CCN(C)CC3)nc2c1 [Example 41, (R)—N-(4-(3-((5-cyanopyrimidin-2-yl)amino)pyrrolidin-1-yl)-2-(4-methylpiperazin-1-yl)quinazolin-7-yl)-N-methylacrylamide]	≤ 100 nM
C=CC(=O)N(C)c1ccc2c(N3CC[C@@H](Nc4ncc(C#N)cn4)C3)nc(C3=CCN(C)CC3)cc2c1 [Example 42, (R)—N-(1-(3-((5-cyanopyrimidin-2-yl)amino)pyrrolidin-1-yl)-3-(1-methyl-1,2,3,6-tetrahydropyridin-4-yl)isoquinolin-6-yl)-N-methylacrylamide]	≤ 100 nM

tested on: panel of 1,151 cancer cell lines; assay: not given; details: in 52% of 1,151 cancer cell lines; cited from earlier work

Structure (SMILES)	IC50
CN(C)C/C=C/C(=O)Nc1ccc(C(=O)Nc2cccc(Nc3ncc(Cl)c(-c4c[nH]c5ccccc45)n3)c2)cc1 [THZ1]	< 200 nM

Source: US20220388990A1, “INHIBITORS OF CYCLIN-DEPENDENT KINASES” (Kinnate Biopharma Inc., priority 2019, published 2022)
